According to ChEMBL document CHEMBL5316327, “Design and Synthesis of Orally Active Quinolyl Pyrazinamides as Sigma 2 Receptor Ligands for the Treatment of Pancreatic Cancer” (J Med Chem, 2023):
pKi: −log10 of the molar value. Activity calls are given as the source filed them. The rule behind the calls is not given here.

Key:
HCT-116 [1] = assay: Induction of cell cycle arrest in human HCT-116 cells assessed as accumulation of cells in G2/M phase at 1 uM measured after 24 hrs by propidium iodide staining-based flow cytometric analysis (reference value: 10%); type: functional
MIA PaCa-2 [2] = assay: Induction of apoptosis in human MIA PaCa-2 cells assessed as necrotic cells at 1.0 uM measured after 48 hrs by Annexin V-Alexa Fluor 488/propidium iodide staining based flow cytometry (reference value: 7.03%); type: functional
[3] = Half life in CD-1 mouse plasma at 10 mg/kg, iv; type: ADME, organism-based
[4] = target: Beta-1 adrenergic receptor (Homo sapiens, UniProt P08588); assay: Binding affinity to beta1 receptor (unknown origin) assessed as inhibition constant
MIA PaCa-2 [5] = assay: Synergistic ferroptosis activity in human MIA-PaCa-2 cells at upto 1 uM measured after 7 days in presence of chloroquine by crystal violet staining based analysis; type: functional, cell-based; conditions: time 7.0 day
HCT-116 [6] = assay: Induction of apoptosis in human HCT-116 cells assessed as late apoptotic cells at 1.0 uM measured after 48 hrs by Annexin V-Alexa Fluor 488/propidium iodide staining based flow cytometry (reference value: 8.48%); type: functional
HCT-116 [7] = assay: Induction of apoptosis in human HCT-116 cells assessed as necrotic cells at 10.0 uM measured after 48 hrs by Annexin V-Alexa Fluor 488/propidium iodide staining based flow cytometry (reference value: 9.06%); type: functional
MIA PaCa-2 [8] = assay: Induction of cell cycle arrest in human MIA PaCa-2 cells assessed as accumulation of cells in G0/G1 phase at 1 uM measured after 24 hrs by propidium iodide staining-based flow cytometric analysis (reference value: 53%); type: functional
MIA PaCa-2 [9] = assay: Induction of apoptosis in human MIA PaCa-2 cells assessed as necrotic cells at 5.0 uM measured after 48 hrs by Annexin V-Alexa Fluor 488/propidium iodide staining based flow cytometry (reference value: 7.03%); type: functional
MIA PaCa-2 [10] = assay: Induction of cell cycle arrest in human MIA PaCa-2 cells assessed as accumulation of cells in G2/M phase at […] measured after 24 hrs by propidium iodide staining-based flow cytometric analysis (reference value: 16%); type: functional; conditions: dose 2.5 µM
Histamine H3 receptor = Histamine H3 receptor (Homo sapiens, UniProt Q9Y5N1); assay: Binding affinity to histamine H3 receptor (unknown origin) assessed as inhibition constant
HCT-116 [11] = assay: Induction of apoptosis in human HCT-116 cells assessed as necrotic cells at 5.0 uM measured after 48 hrs by Annexin V-Alexa Fluor 488/propidium iodide staining based flow cytometry (reference value: 9.06%); type: functional
MIA PaCa-2 [12] = assay: Induction of cell cycle arrest in human MIA PaCa-2 cells assessed as accumulation of cells in G2/M phase at 5 uM measured after 24 hrs by propidium iodide staining-based flow cytometric analysis (reference value: 16%); type: functional
MIA PaCa-2 [13] = assay: Upregulation of LC3-B expression in human MIA-PaCa-2 cells measured after 72 hrs; type: functional, cell-based; conditions: dose 1-5 µM
Panc02 = assay: Antitumor activity against mouse Panc02 cells xenografted in C57BL/6 mouse model assessed as delayed tumor growth at 60 mg/kg, ip administered daily for 28 days by caliper method; type: functional, organism-based; conditions: time 28.0 day
MIA PaCa-2 [14] = assay: Additive ferroptosis activity in human MIA-PaCa-2 cells at upto 1 uM measured after 7 days in presence of deferoxamine by crystal violet staining based analysis; type: functional, cell-based; conditions: time 7.0 day
[15] = target: Muscarinic acetylcholine receptor M1 (Homo sapiens, UniProt P11229); assay: Binding affinity to M1 receptor (unknown origin) assessed as inhibition constant
MIA PaCa-2 [16] = assay: Synergistic cytotoxicity against human MIA PaCa-2 cells at upto 1 uM measured after 7 days in presence of copper chloride by crystal violet staining based analysis; type: functional, cell-based; conditions: time 7.0 day
HCT-116 [17] = assay: Induction of apoptosis in human HCT-116 cells assessed as early apoptotic cells at 5.0 uM measured after 48 hrs by Annexin V-Alexa Fluor 488/propidium iodide staining based flow cytometry (reference value: 2.77%); type: functional
HCT-116 [18] = assay: Induction of cell cycle arrest in human HCT-116 cells assessed as accumulation of cells in S phase at 10 uM measured after 24 hrs by propidium iodide staining-based flow cytometric analysis (reference value: 47%); type: functional

Sequence of Beta-1 adrenergic receptor (P08588 whole entry): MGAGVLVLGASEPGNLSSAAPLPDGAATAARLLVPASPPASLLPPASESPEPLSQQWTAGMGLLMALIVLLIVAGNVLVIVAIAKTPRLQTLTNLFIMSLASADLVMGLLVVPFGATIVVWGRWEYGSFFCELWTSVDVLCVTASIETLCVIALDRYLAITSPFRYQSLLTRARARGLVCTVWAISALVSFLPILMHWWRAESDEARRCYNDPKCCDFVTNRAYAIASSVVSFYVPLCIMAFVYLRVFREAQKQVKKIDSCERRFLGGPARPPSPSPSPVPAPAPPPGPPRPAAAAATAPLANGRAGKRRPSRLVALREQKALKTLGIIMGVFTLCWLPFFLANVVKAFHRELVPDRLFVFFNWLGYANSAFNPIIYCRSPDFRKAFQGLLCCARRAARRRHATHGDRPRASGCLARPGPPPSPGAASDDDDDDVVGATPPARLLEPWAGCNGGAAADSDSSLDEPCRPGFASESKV
Sequence of Muscarinic acetylcholine receptor M1 (P11229 whole entry): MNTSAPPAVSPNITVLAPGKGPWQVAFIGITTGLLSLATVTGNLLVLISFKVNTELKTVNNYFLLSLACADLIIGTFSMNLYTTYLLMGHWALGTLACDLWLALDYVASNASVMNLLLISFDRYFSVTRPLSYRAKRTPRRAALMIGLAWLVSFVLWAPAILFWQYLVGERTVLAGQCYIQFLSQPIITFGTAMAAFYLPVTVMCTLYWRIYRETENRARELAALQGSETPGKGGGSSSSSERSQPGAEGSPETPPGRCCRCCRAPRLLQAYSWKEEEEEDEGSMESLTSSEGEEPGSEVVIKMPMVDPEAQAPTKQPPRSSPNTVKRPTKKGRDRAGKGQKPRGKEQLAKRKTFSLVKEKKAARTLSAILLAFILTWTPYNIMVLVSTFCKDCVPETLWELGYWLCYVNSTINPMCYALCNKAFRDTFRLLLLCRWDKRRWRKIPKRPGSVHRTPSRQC
Sequence of Histamine H3 receptor (Q9Y5N1 whole entry): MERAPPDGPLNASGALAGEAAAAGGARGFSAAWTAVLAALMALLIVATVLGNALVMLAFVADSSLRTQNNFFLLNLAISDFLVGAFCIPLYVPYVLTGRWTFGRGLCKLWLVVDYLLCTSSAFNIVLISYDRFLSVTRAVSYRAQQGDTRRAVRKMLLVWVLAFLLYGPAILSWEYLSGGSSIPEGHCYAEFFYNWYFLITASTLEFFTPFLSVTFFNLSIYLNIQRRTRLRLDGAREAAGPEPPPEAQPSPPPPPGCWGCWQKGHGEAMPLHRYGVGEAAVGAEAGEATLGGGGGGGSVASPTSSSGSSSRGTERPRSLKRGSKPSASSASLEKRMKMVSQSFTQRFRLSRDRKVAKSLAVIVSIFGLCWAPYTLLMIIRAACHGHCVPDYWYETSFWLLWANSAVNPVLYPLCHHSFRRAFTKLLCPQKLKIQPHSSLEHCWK

In the case of CCN(CC)CCCC(C)Nc1cnc(C(=O)Nc2ccc(Cl)c3cccnc23)cn1 (stereo not given), the Activity (HCT-116 [1]) was 25%, the Activity (MIA PaCa-2 [2]) was 3.16% and the half-life [3] was 282 min. The pKi [4] was 5.20, the Activity (MIA PaCa-2 [5]) was “Active” and the Activity (HCT-116 [6]) was 9.6%. The Activity (HCT-116 [7]) was 2.37%, the Activity (MIA PaCa-2 [8]) was 46% and the Activity (MIA PaCa-2 [9]) was 5.32%. It also gave an Activity (MIA PaCa-2 [10]) of 16%, a pKi (Histamine H3 receptor) of 5.93 and an Activity (HCT-116 [11]) of 5.1%. The Activity (MIA PaCa-2 [12]) was 17%, the Activity (MIA PaCa-2 [13]) was “Dose-Dependent Effect” and the Activity (Panc02) was “Active”. For the same compound, the Activity (MIA PaCa-2 [14]) was “Active”, the pKi [15] was 5.38 and the Activity (MIA PaCa-2 [16]) was “Active”. It also gave an Activity (HCT-116 [17]) of 12.38% and an Activity (HCT-116 [18]) of 20%.
